Assay results: US9284358B2 (UNIVERSITY OF UTAH RESEARCH FOUNDATION, priority 2006, dated 2016)
Positions of bridges follow the written chain, without caps; N, C: chain ends. Residues, ends and D or L forms follow the SMILES beside them.

Legend:
α9α10 nAChR = biological target: T1, α9α10 nAChR (Rattus norvegicus, UniProt P43144+Q9JLB5); test: cell-based
T1 construct: expressed in transfected cells; host or cells: oocytes

human α9α10 nAChR = biological target: T2, human α9α10 nAChR (Homo sapiens, UniProt Q9GZZ6+Q9UGM1); test: cell-based
T2 construct: expressed in transfected cells; host or cells: oocytes
T2 sequence (Q9UGM1 26-479 limits assumed): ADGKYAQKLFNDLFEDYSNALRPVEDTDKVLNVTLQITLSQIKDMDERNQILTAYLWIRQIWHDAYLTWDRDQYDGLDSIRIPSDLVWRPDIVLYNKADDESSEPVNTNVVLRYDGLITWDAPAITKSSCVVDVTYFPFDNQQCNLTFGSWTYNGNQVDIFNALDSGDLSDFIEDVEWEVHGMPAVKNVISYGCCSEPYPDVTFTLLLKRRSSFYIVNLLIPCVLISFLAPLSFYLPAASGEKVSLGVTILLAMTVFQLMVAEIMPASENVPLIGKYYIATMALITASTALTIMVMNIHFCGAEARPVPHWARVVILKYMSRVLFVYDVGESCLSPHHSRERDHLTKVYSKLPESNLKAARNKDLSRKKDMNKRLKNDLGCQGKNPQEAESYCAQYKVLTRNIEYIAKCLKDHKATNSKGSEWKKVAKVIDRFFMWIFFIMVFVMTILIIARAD
T2 sequence (Q9GZZ6 25-450): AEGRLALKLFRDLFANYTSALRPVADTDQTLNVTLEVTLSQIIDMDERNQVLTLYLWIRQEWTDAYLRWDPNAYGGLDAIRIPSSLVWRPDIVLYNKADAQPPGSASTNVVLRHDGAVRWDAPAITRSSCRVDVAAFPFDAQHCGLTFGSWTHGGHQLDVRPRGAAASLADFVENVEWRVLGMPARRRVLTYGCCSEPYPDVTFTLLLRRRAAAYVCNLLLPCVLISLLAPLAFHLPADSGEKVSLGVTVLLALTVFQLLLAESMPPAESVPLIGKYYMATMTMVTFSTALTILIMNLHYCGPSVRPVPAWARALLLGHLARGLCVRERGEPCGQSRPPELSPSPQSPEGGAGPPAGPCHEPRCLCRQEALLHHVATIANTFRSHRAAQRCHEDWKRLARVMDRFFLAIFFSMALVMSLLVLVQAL

T1 sequence (P43144 26-479 limits assumed): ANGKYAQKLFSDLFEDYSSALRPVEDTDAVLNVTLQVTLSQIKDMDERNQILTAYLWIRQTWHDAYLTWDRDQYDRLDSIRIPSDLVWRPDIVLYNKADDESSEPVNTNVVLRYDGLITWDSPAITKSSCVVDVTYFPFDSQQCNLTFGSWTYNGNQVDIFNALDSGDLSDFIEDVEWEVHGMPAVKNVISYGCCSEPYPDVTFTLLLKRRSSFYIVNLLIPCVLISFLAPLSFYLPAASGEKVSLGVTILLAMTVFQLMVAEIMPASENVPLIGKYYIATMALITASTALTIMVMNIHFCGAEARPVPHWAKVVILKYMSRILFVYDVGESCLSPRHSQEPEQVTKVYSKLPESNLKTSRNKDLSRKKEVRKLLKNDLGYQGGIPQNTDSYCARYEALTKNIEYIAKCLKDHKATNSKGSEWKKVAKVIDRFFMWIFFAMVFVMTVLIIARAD
T1 sequence (Q9JLB5 25-447 limits assumed): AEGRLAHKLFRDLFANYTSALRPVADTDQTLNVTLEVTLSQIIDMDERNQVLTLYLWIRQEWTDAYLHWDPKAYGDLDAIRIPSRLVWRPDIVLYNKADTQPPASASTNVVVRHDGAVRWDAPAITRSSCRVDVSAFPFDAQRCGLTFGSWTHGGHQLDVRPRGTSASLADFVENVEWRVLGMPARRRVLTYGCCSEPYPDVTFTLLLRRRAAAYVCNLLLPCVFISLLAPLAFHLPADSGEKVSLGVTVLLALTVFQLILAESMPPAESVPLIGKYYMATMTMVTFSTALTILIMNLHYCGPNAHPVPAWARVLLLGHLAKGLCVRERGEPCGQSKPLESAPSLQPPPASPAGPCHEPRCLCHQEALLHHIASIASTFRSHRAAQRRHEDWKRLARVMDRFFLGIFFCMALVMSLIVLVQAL

SMILES | IC50 (α9α10 nAChR) | IC50 (human α9α10 nAChR)
N=C(N)NCCC[C@H](NC(=O)[C@@H]1CSSC[C@@H]2NC(=O)[C@@H](NC(=O)CN)CSSC[C@H](NC(=O)[C@H](CCCNC(=N)N)NC(=O)[C@@H]3CCCN3C(=O)[C@H](CC(=O)O)NC(=O)[C@H](CO)NC2=O)C(=O)N[C@@H](CCCNC(=N)N)C(=O)N[C@@H](Cc2c[nH]c3ccccc23)C(=O)N[C@@H](CCCNC(=N)N)C(=O)N1)C(=O)O [SEQ ID NO:16] (H-GCCSDPRCRWRCR-OH; disulfide 2-8, 3-12) | 11 nM | 268 nM
C[C@@H](O)[C@@H]1NC(=O)[C@@H]2CSSC[C@@H](C(=O)N[C@@H](CCCNC(=N)N)C(=O)O)NC(=O)[C@H](CCCNC(=N)N)NC(=O)[C@H](Cc3ccc(O)cc3)NC(=O)[C@H](CCCNC(=N)N)NC(=O)[C@H](CSSC[C@H](NC(=O)CN)C(=O)N2)NC(=O)[C@H](CCCNC(=N)N)NC(=O)[C@@H]2CCCN2C(=O)[C@H](CC(=O)O)NC1=O [SEQ ID NO:3] |  | 281 nM
N=C(N)NCCC[C@H](NC(=O)[C@@H]1CSSC[C@@H]2NC(=O)[C@@H](NC(=O)CN)CSSC[C@H](NC(=O)[C@H](CCCNC(=N)N)NC(=O)[C@@H]3CCCN3C(=O)[C@H](CC(=O)O)NC(=O)[C@H](CO)NC2=O)C(=O)N[C@@H](CCCNC(=N)N)C(=O)N[C@@H](Cc2ccc(O)cc2)C(=O)N[C@@H](CCC(N)=O)C(=O)N1)C(=O)O [SEQ ID NO:32] (H-GCCSDPRCRYQCR-OH; disulfide 2-8, 3-12) |  | 202 nM
N=C(N)NCCC[C@@H]1NC(=O)[C@H](Cc2ccc(O)cc2)NC(=O)[C@H](CCCNC(=N)N)NC(=O)[C@@H]2CSSC[C@H](NC(=O)CN)C(=O)N[C@@H](CSSC[C@@H](C(N)=O)NC1=O)C(=O)N[C@@H](CO)C(=O)N[C@@H](CC(=O)O)C(=O)N1CCC[C@H]1C(=O)N[C@@H](CCCNC(=N)N)C(=O)N2 [SEQ ID NO:21] (H-GCCSDPRCRYRC-NH2; disulfide 2-8, 3-12) | 7.8 nM | 
N=C(N)NCCCC[C@@H]1NC(=O)[C@@H]2CSSC[C@H](NC(=O)CN)C(=O)N[C@@H](CSSC[C@@H](C(=O)N[C@@H](CCCNC(=N)N)C(=O)O)NC(=O)[C@H](CCCNC(=N)N)NC(=O)[C@H](Cc3ccc(O)cc3)NC1=O)C(=O)N[C@@H](CO)C(=O)N[C@@H](CC(=O)O)C(=O)N1CCC[C@H]1C(=O)N[C@@H](CCCNC(=N)N)C(=O)N2 [SEQ ID NO:11] | > 1000 nM | > 1000 nM
C[C@@H]1NC(=O)[C@@H]2CSSC[C@H](NC(=O)CN)C(=O)N[C@@H](CSSC[C@@H](C(=O)N[C@@H](CCCNC(=N)N)C(=O)O)NC(=O)[C@H](CCCNC(=N)N)NC(=O)[C@H](Cc3ccc(O)cc3)NC1=O)C(=O)N[C@@H](CO)C(=O)N[C@@H](CC(=O)O)C(=O)N1CCC[C@H]1C(=O)N[C@@H](CCCNC(=N)N)C(=O)N2 [SEQ ID NO:24] (H-GCCSDPRCAYRCR-OH; disulfide 2-8, 3-12) | 13000 nM | 
N=C(N)NCCC[C@H](NC(=O)[C@@H]1CSSC[C@@H]2NC(=O)[C@@H](NC(=O)CN)CSSC[C@H](NC(=O)[C@H](CCCNC(=N)N)NC(=O)[C@@H]3CCCN3C(=O)[C@H](CC(=O)O)NC(=O)[C@H](CO)NC2=O)C(=O)N[C@@H](CCCNC(N)=O)C(=O)N[C@@H](Cc2ccc(O)cc2)C(=O)N[C@@H](CCCNC(=N)N)C(=O)N1)C(=O)O [SEQ ID NO:9] | 2.4 nM | 416 nM
N=C(N)NCCC[C@H](NC(=O)[C@@H]1CSSC[C@@H]2NC(=O)[C@@H](NC(=O)CN)CSSC[C@H](NC(=O)[C@H](CCCNC(=N)N)NC(=O)[C@@H]3CCCN3C(=O)[C@H](CCC(=O)O)NC(=O)[C@H](CO)NC2=O)C(=O)N[C@@H](CCCNC(=N)N)C(=O)N[C@@H](Cc2ccc(O)cc2)C(=O)N[C@@H](CCCNC(=N)N)C(=O)N1)C(=O)O [SEQ ID NO:22] (H-GCCSEPRCRYRCR-OH; disulfide 2-8, 3-12) | 6600 nM | 
CC(C)[C@@H]1NC(=O)[C@H](CC(=O)O)NC(=O)[C@H](CO)NC(=O)[C@@H]2CSSC[C@@H](C(=O)N[C@@H](CCCNC(=N)N)C(=O)O)NC(=O)[C@H](CCCNC(=N)N)NC(=O)[C@H](Cc3ccc(O)cc3)NC(=O)[C@H](CCCNC(=N)N)NC(=O)[C@H](CSSC[C@H](NC(=O)CN)C(=O)N2)NC(=O)[C@H](CCCNC(=N)N)NC1=O [SEQ ID NO:23] (H-GCCSDVRCRYRCR-OH; disulfide 2-8, 3-12) | 4100 nM | 
C[C@@H]1NC(=O)[C@@H]2CCCN2C(=O)[C@H](Cc2c[nH]cn2)NC(=O)[C@H](CO)NC(=O)[C@@H]2CSSC[C@@H](C(=O)N[C@@H](CCCNC(=N)N)C(=O)O)NC(=O)[C@H](CCCNC(=N)N)NC(=O)[C@H](Cc3ccc(O)cc3)NC(=O)[C@H](CCCNC(=N)N)NC(=O)[C@H](CSSC[C@H](NC(=O)CN)C(=O)N2)NC1=O [SEQ ID NO:25] (H-GCCSHPACRYRCR-OH; disulfide 2-8, 3-12) | > 10000 nM | 
N=C(N)NCCC[C@H](NC(=O)[C@@H]1CSSC[C@@H]2NC(=O)[C@@H](NC(=O)CN)CSSC[C@H](NC(=O)[C@H](CCCNC(=N)N)NC(=O)[C@@H]3CCCN3C(=O)[C@H](CC(=O)O)NC(=O)[C@H](CO)NC2=O)C(=O)N[C@@H](CCCNC(=N)N)C(=O)N[C@@H](Cc2ccc(O)cc2)C(=O)N[C@@H](Cc2c[nH]cn2)C(=O)N1)C(=O)O [SEQ ID NO:36] (H-GCCSDPRCRYHCR-OH; disulfide 2-8, 3-12) |  | > 1000 nM
N=C(N)NCCC[C@H](NC(=O)[C@@H]1CSSC[C@@H]2NC(=O)[C@@H](NC(=O)CN)CSSC[C@H](NC(=O)[C@H](CCCNC(=N)N)NC(=O)[C@@H]3CCCN3C(=O)[C@H](CC(=O)O)NC(=O)[C@H](CO)NC2=O)C(=O)N[C@@H](CCCCN)C(=O)N[C@@H](Cc2ccc(O)cc2)C(=O)N[C@@H](CCCNC(=N)N)C(=O)N1)C(=O)O [SEQ ID NO:14] | > 1000 nM | 
N=C(N)NCCC[C@H](NC(=O)[C@@H]1CSSC[C@@H]2NC(=O)[C@@H](NC(=O)CN)CSSC[C@H](NC(=O)[C@H](CCCNC(=N)N)NC(=O)[C@@H]3CCCN3C(=O)[C@H](CC(=O)O)NC(=O)[C@H](CO)NC2=O)C(=O)N[C@@H](CCCNC(=N)N)C(=O)N[C@@H](Cc2ccccc2)C(=O)N[C@@H](CCCNC(=N)N)C(=O)N1)C(=O)O [SEQ ID NO:17] (H-GCCSDPRCRFRCR-OH; disulfide 2-8, 3-12) | 8 nM | > 1000 nM
N=C(N)NCCC[C@H](NC(=O)[C@@H]1CSSC[C@@H]2NC(=O)[C@@H](NC(=O)CN)CSSC[C@H](NC(=O)[C@H](CCCNC(=N)N)NC(=O)[C@@H]3CCCN3C(=O)[C@H](CC(=O)O)NC(=O)[C@H](Cc3ccc(O)cc3)NC2=O)C(=O)N[C@@H](CCCNC(=N)N)C(=O)N[C@@H](Cc2ccc(O)cc2)C(=O)N[C@@H](CCCNC(=N)N)C(=O)N1)C(=O)O [SEQ ID NO:34] (H-GCCYDPRCRYRCR-OH; disulfide 2-8, 3-12) |  | > 1000 nM
C[C@@H]1NC(=O)[C@@H]2CSSC[C@@H](C(=O)N[C@@H](CCCNC(=N)N)C(=O)O)NC(=O)[C@H](CCCNC(=N)N)NC(=O)[C@H](Cc3ccc(O)cc3)NC(=O)[C@H](CCCNC(=N)N)NC(=O)[C@H](CSSC[C@H](NC(=O)CN)C(=O)N2)NC(=O)[C@H](CCCNC(=N)N)NC(=O)[C@@H]2CCCN2C(=O)[C@H](CC(=O)O)NC1=O [SEQ ID NO:20] (H-GCCADPRCRYRCR-OH; disulfide 2-8, 3-12) | 14.5 nM | > 1000 nM
